Laboratory results as given in the supplement of paper PMC10307832.

How the values were obtained:
Experiment in all cases: relative viability (nuclei count vs DMSO), 5 days (fraction); higher = more cells survive
AZD8055 + Olaparib = compound: COc1ccc(-c2ccc3c(N4CCOC[C@@H]4C)nc(N4CCOC[C@@H]4C)nc3n2)cc1CO [AZD8055] + O=C(c1cc(Cc2n[nH]c(=O)c3ccccc23)ccc1F)N1CCN(C(=O)C2CC2)CC1 [Olaparib] (partner 8 µM)
How it was run: (§1)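 One day after seeding in 1536-well plates, lung cancer cell lines were dosed by pin tool. Dosing was either single-drug or a fixed anchor-drug dose plus five library-drug doses (not always all listed) in √10 steps. After 5 days, nuclei were stained in one fix-and-stain step and counted on 4× images, and relative viability is the nuclei count of treated wells over that of vehicle wells, given as the median of duplicate plates.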

AZD8055 + AZD7762 = compound: COc1ccc(-c2ccc3c(N4CCOC[C@@H]4C)nc(N4CCOC[C@@H]4C)nc3n2)cc1CO [AZD8055] + NC(=O)Nc1cc(-c2cccc(F)c2)sc1C(=O)N[C@H]1CCCNC1 [AZD7762] (partner 0.2 µM)
How it was run: as §1

AZD8055 + Lapatinib = compound: COc1ccc(-c2ccc3c(N4CCOC[C@@H]4C)nc(N4CCOC[C@@H]4C)nc3n2)cc1CO [AZD8055] + CS(=O)(=O)CCNCc1ccc(-c2ccc3ncnc(Nc4ccc(OCc5cccc(F)c5)c(Cl)c4)c3c2)o1 [Lapatinib] (partner 2 µM)
How it was run: as §1

AZD8055 + Decitabine = compound: COc1ccc(-c2ccc3c(N4CCOC[C@@H]4C)nc(N4CCOC[C@@H]4C)nc3n2)cc1CO [AZD8055] + Nc1ncn([C@H]2C[C@H](O)[C@@H](CO)O2)c(=O)n1 [Decitabine] (partner 2 µM)
How it was run: as §1

| Cell Line | relative viability (AZD8055 + Olaparib; first compound 0.01 µM) | relative viability (AZD8055 + Olaparib; first compound 0.03162 µM) | relative viability (AZD8055 + Olaparib; first compound 0.1 µM) | relative viability (AZD8055 + Olaparib; first compound 0.3162 µM) | relative viability (AZD8055 + Olaparib; first compound 1 µM) | relative viability (AZD8055 + AZD7762; first compound 0.01 µM) | relative viability (AZD8055 + AZD7762; first compound 0.03162 µM) | relative viability (AZD8055 + AZD7762; first compound 0.1 µM) | relative viability (AZD8055 + AZD7762; first compound 0.3162 µM) | relative viability (AZD8055 + AZD7762; first compound 1 µM) | relative viability (AZD8055 + Lapatinib; first compound 0.01 µM) | relative viability (AZD8055 + Lapatinib; first compound 0.03162 µM) | relative viability (AZD8055 + Lapatinib; first compound 0.1 µM) | relative viability (AZD8055 + Lapatinib; first compound 0.3162 µM) | relative viability (AZD8055 + Lapatinib; first compound 1 µM) | relative viability (AZD8055 + Decitabine; first compound 0.01 µM) | relative viability (AZD8055 + Decitabine; first compound 0.03162 µM) | relative viability (AZD8055 + Decitabine; first compound 0.1 µM) | relative viability (AZD8055 + Decitabine; first compound 0.3162 µM) | relative viability (AZD8055 + Decitabine; first compound 1 µM) |
| --- | --- | --- | --- | --- | --- | --- | --- | --- | --- | --- | --- | --- | --- | --- | --- | --- | --- | --- | --- | --- |
| 201T | 0.878 | 0.854 | 0.813 | 0.673 | 0.456 | 0.621 | 0.413 | 0.5 | 0.362 | 0.374 | 1.01 | 1.04 | 0.986 | 0.788 | 0.7 | 0.863 | 0.711 | 0.692 | 0.579 | 0.527 |
| A-427 | 0.718 | 0.695 | 0.611 | 0.529 | 0.431 | 0.762 | 0.597 | 0.529 | 0.5 | 0.427 | 1.12 | 1.03 | 0.865 | 0.665 | 0.546 | 0.552 | 0.491 | 0.494 | 0.415 | 0.389 |
| ABC-1 | 1.3 | 1.37 | 0.992 | 0.717 | 0.907 | 0.879 | 0.766 | 1.02 | 0.406 | 0.495 | 1.2 | 0.939 | 1.2 | 0.652 | 0.611 | 1.16 | 1.51 | 0.825 | 0.697 | 0.576 |
| BEN | 1.15 | 0.884 | 0.658 | 0.455 | 0.518 | 0.684 | 0.408 | 0.41 | 0.403 | 0.357 | 0.607 | 0.402 | 0.353 | 0.317 | 0.304 | 0.691 | 0.63 | 0.435 | 0.49 | 0.453 |
| CAL-12T | 0.679 | 0.654 | 0.491 | 0.277 | 0.226 | 0.695 | 0.8 | 0.733 | 0.421 | 0.339 | 0.67 | 0.601 | 0.369 | 0.37 | 0.343 |  |  |  |  |  |
| COR-L23 | 0.408 | 0.42 | 0.277 | 0.143 | 0.141 |  |  |  |  |  | 1.36 | 0.804 | 0.741 | 0.33 | 0.219 | 0.401 | 0.298 | 0.305 | 0.209 | 0.191 |
| COR-L 105 | 0.738 | 0.741 | 0.707 | 0.455 | 0.448 |  |  |  |  |  | 0.353 | 0.284 | 0.318 | 0.346 | 0.389 | 0.718 | 0.714 | 0.579 | 0.445 | 0.431 |
| Calu-6 | 0.716 | 0.616 | 0.505 | 0.478 | 0.362 |  |  |  |  |  | 1.22 | 0.926 | 0.816 | 0.718 | 0.485 |  |  |  |  |  |
| ChaGo-K-1 | 0.457 | 0.48 | 0.456 | 0.437 | 0.395 | 0.957 | 0.832 | 0.828 | 0.703 | 0.645 |  |  |  |  |  | 0.506 | 0.425 | 0.528 | 0.494 | 0.441 |
| EKVX | 1 | 1.01 | 0.666 | 0.413 | 0.311 | 0.783 | 0.594 | 0.605 | 0.375 | 0.29 | 0.193 | 0.181 | 0.155 | 0.132 | 0.132 | 0.361 | 0.286 | 0.298 | 0.251 | 0.26 |
| EMC-BAC-2 | 0.391 | 0.465 | 0.395 | 0.272 | 0.244 | 1.03 | 0.912 | 0.956 | 0.517 | 0.377 | 0.867 | 0.777 | 0.74 | 0.403 | 0.406 | 1.02 | 0.875 | 0.817 | 0.498 | 0.505 |
| EPLC-272H | 0.627 | 0.589 | 0.333 | 0.281 | 0.245 | 0.178 | 0.0952 | 0.243 | 0.109 | 0.127 | 0.735 | 0.75 | 0.549 | 0.471 | 0.459 | 0.41 | 0.265 | 0.272 | 0.248 | 0.226 |
| H3255 | 0.627 | 0.606 | 0.516 | 0.326 | 0.36 | 1.03 | 0.951 | 0.803 | 0.471 | 0.413 | 0.228 | 0.209 | 0.227 | 0.212 | 0.229 | 0.535 | 0.568 | 0.48 | 0.316 | 0.281 |
| HARA |  | 0.687 | 0.58 | 0.39 | 0.246 |  | 0.384 | 0.406 | 0.487 | 0.306 | 0.75 | 0.614 | 0.408 | 0.326 | 0.224 |  | 0.355 | 0.414 | 0.321 | 0.357 |
| HCC-15 | 0.776 | 0.697 | 0.643 | 0.47 | 0.35 | 1.26 | 1.18 | 1.21 | 0.885 | 0.559 | 0.834 | 0.877 | 0.886 | 0.474 | 0.333 | 0.667 | 0.587 | 0.597 | 0.319 | 0.255 |
| HCC-44 | 1.03 | 1.04 | 0.957 | 0.847 | 0.861 | 1.03 | 1.01 | 0.972 | 0.992 | 0.925 | 1.09 | 0.997 | 0.769 | 0.565 | 0.443 | 0.971 | 0.849 | 0.812 | 0.8 | 0.735 |
| HCC-78 | 0.758 | 0.632 | 0.54 | 0.388 | 0.383 | 0.658 | 0.541 | 0.47 | 0.347 | 0.269 | 0.934 | 0.547 | 0.406 | 0.225 | 0.217 | 0.729 | 0.437 | 0.564 | 0.381 | 0.412 |
